Reference: patent US5010005A, “Bio-oxidation of high alcohols in non-aqueous reaction media” (priority 1989, dated 1991)

How the values were obtained:
[1] = molecular target: T1, purified alcohol oxidase from P. pastoris (Komagataella phaffii, UniProt P04842); settings: Patel et al; cited from earlier work
T1 sequence (P04842 2-663 limits assumed): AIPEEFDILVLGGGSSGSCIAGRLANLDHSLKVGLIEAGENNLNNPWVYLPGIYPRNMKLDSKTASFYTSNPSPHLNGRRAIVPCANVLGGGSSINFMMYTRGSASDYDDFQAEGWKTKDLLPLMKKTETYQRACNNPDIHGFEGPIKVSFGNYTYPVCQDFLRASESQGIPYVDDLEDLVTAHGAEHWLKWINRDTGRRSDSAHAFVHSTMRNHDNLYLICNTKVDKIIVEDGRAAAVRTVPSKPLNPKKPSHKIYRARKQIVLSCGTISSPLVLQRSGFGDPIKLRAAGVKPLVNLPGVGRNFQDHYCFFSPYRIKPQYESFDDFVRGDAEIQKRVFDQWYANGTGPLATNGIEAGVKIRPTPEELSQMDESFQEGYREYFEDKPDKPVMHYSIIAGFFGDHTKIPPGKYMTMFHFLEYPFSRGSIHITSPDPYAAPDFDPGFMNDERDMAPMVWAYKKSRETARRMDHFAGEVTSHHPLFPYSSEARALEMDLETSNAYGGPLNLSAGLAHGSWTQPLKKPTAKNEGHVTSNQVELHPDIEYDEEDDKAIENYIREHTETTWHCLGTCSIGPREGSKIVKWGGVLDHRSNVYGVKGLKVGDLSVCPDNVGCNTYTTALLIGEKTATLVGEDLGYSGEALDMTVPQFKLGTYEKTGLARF

[2] = tested on: alkane-induced alcohol oxidase; settings: Kemp et al; cited from earlier work
[3] = tested on: whole cells of Pichia pastoris; assay: Conversion of alcohols by whole cells of Pichia pastoris in aqueous reaction media; format: cell-based; settings: for Oxidation by methanol-induced alcohol oxidase from P. pastoris: aqueous reaction media
Description: Pichia pastoris was obtained from the American Type Culture Collection, Rockville, Maryland, U.S.A. (ATCC 28485). The growth and maintenance medium consisted of: KH2 PO4 2.6 g/L; K2 HPO4 0.3 g/L; (NH4)2 SO4 1.5 g/L; MgSO4.7 ·H2 O 0.3 g/L; Difco yeast extract 1.9 g/L; FeSO4 ·7H2 O 1 mg/L; CuSO4 ·5H2 O 5 μg/L; H3 BO3 10 μg/L; MnSO4 ·H2 O 10 μg/L; ZnSO4 ·7H2 O 70 μg/L: NaMoO4 ·2H2 O 10 μg/L. After the medium was autoclaved and cooled, methanol (10 g/L) and a vitamin solution (J.P. van der Walt and A.E. van Kerken, Antonie van Leeuwenkoek 27: 81-90, 1961) (2 mL) were added. Growth of the organism was carried out in Erlenmeyer shake flasks at 30° C. on a reciprocal shaker (200 rpm). After 72 hrs growth, biomass was harvested by centrifugation (4000 g, 5 min) washed with 0.1 M phosphate buffer pH 8, and resuspended in 0.5 M Tris buffer (pH 8).
Unless otherwise stated, the reaction conditions for whole cell systems in aqueous solution (0.5M Tris pH 8) were as follows: 25 ml of the biomass suspension was dispensed into 125 mL serum vials and the substrate was added to the concentration listed in Table 1. The final biomass concentration was 5 g/L. The vials were flushed with oxygen, capped and sealed to prevent loss of reactants or products from the system. The vials were pressurized with oxygen (15 psig) and shaken (200 rpm) at 30° C. during the reaction. A sample was withdrawn following the reaction time listed in Table 1 and centrifuged (15000 g, 1 min) to remove biomass and stop the reaction. The supernatant liquid was diluted 1:1 with internal standard for gas chromatography. In some cases, a portion of the sample was extracted with 9 volumes of warm (50° C.) water, to solubilize insoluble separated product, mixed thoroughly by vortexing, and then diluted 1:1 with internal standard before assaying by gas chromatography. In all experiments the vials were regularly repressurized with oxygen throughout the reaction period.
The substrates and products were assayed using a Hewlett-Packard 5790A gas chromatograph equipped with a Chromasorb 101 packed column. The carrier gas was helium and the column was run isothermally at 220° C. For aqueous reaction systems the internal standard was isopropyl alcohol (20 g/L). In non-aqueous systems octanol (20 g/L) was dissolved in the appropriate solvent and used as internal standard.

[4] = tested on: P. pastoris; assay: Bio-oxidation of hexanol to hexanal by P. pastoris in two-phase aqueous (5% v/v)/organic systems; format: cell-based, Pichia pastoris; settings: for Hexanal produced: aqueous phase 5% v/v, 24 h incubation
[5] = tested on: whole cells of Pichia pastoris; assay: Conversion of higher alcohols by whole cells of Pichia pastoris in two-phase (hexane/water) reaction system; format: cell-based; settings: alcohol 30 g/L
Description: Growth of the organism was carried out in Erlenmeyer shake flasks at 30° C. on a reciprocal shaker (200 rpm). After 72 hrs growth, biomass was harvested by centrifugation (4000 g, 5 min) washed with 0.1 M phosphate buffer pH 8, and resuspended in 0.5 M Tris buffer (pH 8).
The method of conversion of higher alcohols using whole cells in a two-phase reaction system was as follows. One gram of Pichia pastoris cell paste (pellet resulting from a 10 minute, 9154 g centrifugation) was placed in a 125 ml serum vial and dispersed in 2 ml of H2 O (aqueous phase).
Then 48 ml of hexane containing the substrate (concentration in Table 1) were added to form the organic phase. The reaction was conducted as described above. Samples from the organic phase were withdrawn at the indicated times (Table 1) and the concentration of aldehyde product determined by gas chromatography.
The carrier gas was helium and the column was run isothermally at 220° C. For aqueous reaction systems the internal standard was isopropyl alcohol (20 g/L). In non-aqueous systems octanol (20 g/L) was dissolved in the appropriate solvent and used as internal standard.

[6] = molecular target: T2, alcohol oxidase (Komagataella phaffii, UniProt P04842); assay: Conversion of benzyl alcohol to benzaldehyde by purified alcohol oxidase in aqueous two phase systems; format: biochemical, Pichia pastoris; settings: for Reaction Rate: benzyl alcohol 20 g/L
T2 construct: purchased Provesta Corp. (Bartlesville, Oklahoma)
T2 sequence (P04842 2-663 limits assumed): T1 sequence (P04842 2-663 limits assumed)
Description: To determine reaction rates, benzyl alcohol was presolubilized in the solvent of interest to a final concentration of 20 g/L unless otherwise specified. Alcohol oxidase and catalase were premixed in an activity ratio of 1300 U catalase activity per unit of alcohol oxidase activity. In some cases the enzyme mixture was diluted with 0.1 M phosphate buffer (pH 8) to determine the effect of changes in phase volume ratio. The enzyme mixture was then added to the solvent-substrate reaction fluid in a 125 mL serum vial. Reaction conditions were otherwise identical to those described above.
The purified alcohol oxidase was obtained from Provesta Corp. (Bartlesville, Oklahoma) and consisted of a concentrated (35 g/L) protein solution with a specific activity of 14.7 International Enzyme Units (IEU) per milligram of protein. One IEU is defined as the amount of enzyme which will oxidize one micomole of ethanol to acetaldehyde per minute at pH 7.5 at 25° C. The enzyme was stored frozen (-20° C.) until used. Beef liver catalase was obtained from Boehringer Mannheim Inc. as a 20 g/L suspension with a specific activity of 65000 U/mg. It was stored at 4° C.
Benzyl alcohol to benzaldehyde conversion was described in part a) except the percent aqueous phase was varied between 1and 5%.

[7] = format: physicochemical
Description: The partitioning of benzyl alcohol and benzaldehyde between 0.1 M phosphate buffer and each solvent used were measured as follows: benzyl alcohol (10 g/L) and benzaldehyde (10 g/L) were dissolved in each of the solvents of interest. Ten millilitres of each solvent were then dispensed into a test tube containing 10 ml of 0.1 M phosphate buffer (pH 8). The tubes were capped, vortexed, and the mixture was allowed to equilibrate for 1 hr at 30° C. Both phases were then assayed for benzaldehyde and benzyl alcohol as described above. Partition coefficients were expressed as the ratio of the concentration of the solute of interest in the aqueous phase: the concentration of the same compound in the organic phase.
The partition coefficients were determined as in Example 2 but expressed as solute (g/L) in organic phase/solute (g/L) in aqueous phase (see Table 4).

CC(N)CO (centres unmarked) [2-amino-1-propanol]
Oxidation by purified alcohol oxidase [1]: unable to oxidize

CCCCCCCCCCCCO [dodecanol]
Substrate specificity of alkane-induced alcohol oxidase [2]: optimum activity

CCCCCCCO [heptanol]
Oxidation by methanol-induced alcohol oxidase from P. pastoris [3]: unable to oxidize

CCCCCCCCCCO [decanol]
Oxidation by methanol-induced alcohol oxidase from P. pastoris [3]: unable to oxidize

CC(C)(C)O [tert butanol]
Oxidation by purified alcohol oxidase [1]: unable to oxidize

CCCCCCCCO [octanol]
Oxidation by methanol-induced alcohol oxidase from P. pastoris [3]: unable to oxidize

CCCCCCCCCO [nonanol]
Oxidation by methanol-induced alcohol oxidase from P. pastoris [3]: unable to oxidize

CCCCCCO [hexanol]
Hexanal produced ([4]; Chloroform): 1.0 g/L | Hexanal produced ([4]; Ether): 2.7 g/L | Hexanal produced ([4]; Ethyl acetate): 2.4 g/L | Hexanal produced ([4]; Hexane): 8.7 g/L | Hexanal produced ([4]; Toluene): 2.4 g/L | Hexanol concentration completely oxidized ([4]; water-hexane two-phase system): up to 10 g/L | Aldehyde concentration, aqueous ([3]; alcohol 30 g/L, reaction time 12 h): 5.0 g/L | Aldehyde concentration, 2-phase ([5]; reaction time 6 h): 10.6 g/L | Aldehyde concentration, 2-phase ([5]; reaction time 24 h): 12.4 g/L

OC1CCCCC1 [cyclohexanol]
Oxidation by purified alcohol oxidase [1]: unable to oxidize

OCc1ccccc1 [benzyl alcohol]
Cumulative benzaldehyde production Concn. ([6]; enzyme 1.0 U/mL, time 2.0 h): 2.1 g/L | Cumulative benzaldehyde production Concn. ([6]; enzyme 1.0 U/mL, time 4.0 h): 2.8 g/L | Cumulative benzaldehyde production Concn. ([6]; enzyme 1.0 U/mL, time 8.0 h): 17 g/L | Cumulative benzaldehyde production Concn. ([6]; enzyme 2.5 U/mL, time 2.0 h): 5.1 g/L | Cumulative benzaldehyde production Concn. ([6]; enzyme 2.5 U/mL, time 4.0 h): 6.3 g/L | Cumulative benzaldehyde production Concn. ([6]; enzyme 5.0 U/mL, time 2.0 h): 9.9 g/L | Cumulative benzaldehyde production Concn. ([6]; enzyme 5.0 U/mL, time 4.0 h): 13 g/L | Cumulative benzaldehyde production Concn. ([6]; enzyme 7.5 U/mL, time 2.0 h): 13 g/L | Cumulative benzaldehyde production Concn. ([6]; enzyme 7.5 U/mL, time 4.0 h): 19 g/L | Cumulative benzaldehyde production Concn. ([6]; enzyme 10 U/mL, time 2.0 h): 15 g/L | Cumulative benzaldehyde production Concn. ([6]; enzyme 10 U/mL, time 4.0 h, fed-batch addition of benzyl alcohol): 22 g/L | Cumulative benzaldehyde production Concn. ([6]; enzyme 15 U/mL, time 2.0 h): 17 g/L | Cumulative benzaldehyde production Concn. ([6]; enzyme 15 U/mL, time 4.0 h, fed-batch addition of benzyl alcohol): 32 g/L | Cumulative benzaldehyde production Concn. ([6]; enzyme 15 U/mL, time 8.0 h, fed-batch addition of benzyl alcohol): 45 g/L | Initial rate of benzaldehyde production ([6]; enzyme concentration 1.0 U/mL (0.06 g/L)): 1.4 g/L h | Initial rate of benzaldehyde production ([6]; enzyme concentration 2.5 U/mL (0.16 g/L)): 3.4 g/L h | Initial rate of benzaldehyde production ([6]; enzyme concentration 5.0 U/mL (0.31 g/L)): 6.3 g/L h | Initial rate of benzaldehyde production ([6]; enzyme concentration 7.5 U/mL (0.47 g/L)): 8.6 g/L h | Initial rate of benzaldehyde production ([6]; enzyme concentration 10 U/mL (0.63 g/L)): 10.3 g/L h | Initial rate of benzaldehyde production ([6]; enzyme concentration 15 U/mL (0.94 g/L)): 11.7 g/L h | Relative Reaction Rate ([6]; reaction fluid Chloroform): 0.03 | Reaction Rate ([6]; reaction fluid Chloroform): 0.07 g/L h | Relative Reaction Rate ([6]; reaction fluid Ether): 0.19 | Reaction Rate ([6]; reaction fluid Ether): 0.39 g/L h | Relative Reaction Rate ([6]; reaction fluid Ethylacetate): 0.04 | Reaction Rate ([6]; reaction fluid Ethylacetate): 0.09 g/L h | Relative Reaction Rate ([6]; reaction fluid Hexane): 1.0 | Reaction Rate ([6]; reaction fluid Hexane): 2.08 g/L h | Relative Reaction Rate ([6]; reaction fluid Toluene): 0.49 | Reaction Rate ([6]; reaction fluid Toluene): 1.01 g/L h | Substrate concentration up to which optimum reaction rates (85% of Vmax) could be maintained ([6]; two phase system, hexane): up to 54 g/L | inhibition at 20000 µg/mL ([3]; Komagataella pastoris, read-out: Reduction of reaction rate by substrate inhibition): ~60% | Substrate concentration at which strong inhibition of the reaction is observed ([3]; whole cells in aqueous reaction fluid): greater than 20 g/L

NCCO [2-amino-ethanol]
Oxidation by purified alcohol oxidase [1]: unable to oxidize

CCCCCC=O [hexanal]
Partition coefficient [7]: greater than unity

CCCCCCCCCCCO [undecanol]
Oxidation by methanol-induced alcohol oxidase from P. pastoris [3]: unable to oxidize
